Values after ≈ are worked out from the molar mass of the structure shown.
Conditions: buffer; pH 7.4; 200.0 µM

| SMILES | solubility kinetic [µg/mL] |
| --- | --- |
| COc1ccc(S(=O)(=O)N2CCN(C(=O)C3CCCCC3)CC2)cc1 | 53.7 (≈ 147 µM) |
| CCOc1ncccc1C(=O)Nc1cc(S(=O)(=O)N(CC)CC)ccc1N1CCOCC1 | 6.5 (≈ 14.1 µM) |
| O=C(NCc1ccccc1F)C1CCCN(c2cnccn2)C1 (stereo not given) | 44.7 (≈ 142 µM) |
| CCOc1cc(/C=C(\C#N)C(=O)Nc2ccccn2)ccc1O | > 46.4 |
| COc1ccc2c(c1)CCCC21NC(=O)N(CC(=O)NCc2cccs2)C1=O (stereo not given) | > 59.9 |
| CC(C)c1ccc(N2C(=O)C(Cl)=C(N3CCOCC3)C2=O)cc1 | 9.2 (≈ 27.5 µM) |
| CCOC(=O)N1CCN(C(=O)COc2cccc3c2CCN(CC)C3=O)CC1 | 44.5 (≈ 114 µM) |
| Cc1cccc(Nc2ncnc(N)c2[N+](=O)[O-])n1 | > 36.9 |
| COc1ccc(/C=C/C(=O)OCC(=O)NC(C)CCc2ccccc2)cc1 (stereo not given) | 3.7 (≈ 10.1 µM) |
| Cc1ccc(C)c(Oc2cc(F)nc(N)n2)c1 | > 35 |
| Cn1cc(CCC(=O)NCc2ccc(Cl)cc2)c2ccccc21 | 2.2 (≈ 6.73 µM) |
| CCCCC(=O)Nc1ccc(C2C(=O)c3ccccc3C2=O)cc1 | 44 (≈ 137 µM) |
| CCOc1ccccc1NC(=O)COc1ccc2c(c1)OCO2 | < 0.7 |
| Cc1cc(Br)ccc1S(=O)(=O)NCc1ccccc1 | 32.5 (≈ 95.5 µM) |
| O=C(COC(=O)c1cc[n+]([O-])cc1)Nc1ccc(Cl)cc1Cl | > 51.2 |
| Cc1cc(C(=O)OCC(=O)Nc2cccc(S(N)(=O)=O)c2)c(C)o1 | > 52.9 |
| Cc1ccc(C)c(OCCn2ccnc2)c1 | 24.7 (≈ 114 µM) |
| Cc1cccc(OCC(=O)NC2CCCC2)c1 | 31.5 (≈ 135 µM) |
| Cc1ccc(CNC(=O)CCSCc2ccccc2C)cc1 | 6.5 (≈ 20.7 µM) |
| CCn1cc(C(=O)O)c(=O)c2cnc(N3CCN(C(=S)Nc4ccccc4)CC3)nc21 | 27.2 (≈ 62 µM) |
| N/C(=N\OC(=O)c1ccc(Br)cc1)c1cccc([N+](=O)[O-])c1 | 0.8 (≈ 2.2 µM) |
| CCN(CC)C(=O)CN1C(=O)/C(=C/c2ccccc2)SC1=S | 2.5 (≈ 7.47 µM) |

| SMILES | solubility kinetic [µg/mL] |
| --- | --- |
| COc1cc(C(=O)NC2CC(C)(C)NC(C)(C)C2)cc(OC)c1OC | > 52.6 |
| COc1ccc2[nH]c(=O)c(CN(C(=O)c3cccnc3)c3cccc(C)c3)cc2c1 | 3.9 (≈ 9.76 µM) |
| CCC(c1ccc(C)cc1)N1C(=O)C2C3CCC(O3)C2C1=O (stereo not given) | 41.1 (≈ 137 µM) |
| Cc1cc(=O)[nH]c2c(C)cc(S(=O)(=O)N3CCCCC3)cc12 | 2.6 (≈ 8.11 µM) |
| Cc1nc2ccc([N+](=O)[O-])cc2c(=O)n1Cc1cccc(F)c1 | 9.1 (≈ 29 µM) |
| COc1ccc(NC(C)=O)cc1CNC(=O)CN1CCOCC1 | > 48.2 |
| O=C(O)c1sccc1S(=O)(=O)N1CCOCC1 | > 41.6 |
| CC(=O)Nc1cccc(NC(=O)c2csc(C)c2)c1 | > 41.2 |
| COc1cc(Cl)c(C)cc1NC(=O)CCNC(=O)c1ccco1 | > 50.5 |
| CC12CC3CC(C1)CC(C(=O)NNC(=O)c1ccncc1)(C3)C2 | > 47 |
| O=C(NCCCn1ccnc1)c1ccc(Cl)cc1 | > 39.6 |
| COC(=O)c1ccn(CC(=O)NC2CCCCC2)n1 | > 39.8 |
| Nc1nc2ccccc2n1CCOc1ccc(F)cc1 | > 40.7 |
| Cc1cccn2c(=O)c(C=O)c(NCc3ccccc3)nc12 | 0.2 (≈ 0.682 µM) |
| O=C(Nc1cccc(F)c1)C1CCN(C(=O)NCc2ccccc2)CC1 | 9.2 (≈ 25.9 µM) |
| CN(C)P(=O)(NC(=O)c1cccn1C)N(C)C | > 38.7 |
| COc1cccc(CNCCc2c[nH]c3ccccc23)c1OC.Cl | > 52 |
| O=C1NC(=O)/C(=C/c2ccc(-c3cc(C(=O)O)ccc3Cl)o2)S1 | > 52.5 |
| COC(=O)c1cn(-c2cccc(C)n2)cn1 | > 32.6 |
| C/C(=N\O)c1ccc(Cl)cc1Cl | 22.9 (≈ 112 µM) |
| O=C(NCCC1=CCCCC1)c1cc(-c2ccncc2)nc2ccccc12 | 1.2 (≈ 3.36 µM) |
| O=c1sc2ccccc2c(N2CCOCC2)c1[N+](=O)[O-] | 12.8 (≈ 43.8 µM) |

| SMILES | solubility kinetic [µg/mL] |
| --- | --- |
| COc1ccc(NC(=O)CSc2ncnc3sc(C)cc23)cc1 | 1.2 (≈ 3.47 µM) |
| O=C(CN1C(=O)NC2(CCCCC2)C1=O)NCc1ccc2c(c1)OCO2 | 42.8 (≈ 119 µM) |
| Cl.NCCSSCCN | 31.6 |
| Cc1ccc2nc(C)c3c(c2c1)N(c1ccccc1)CC3 | > 41.2 |
| Cc1onc(-c2c(Cl)cccc2Cl)c1CO/N=C(\C#N)c1c(Cl)cccc1Cl | < 0.3 |
| COc1cc(C(=O)OC2CCOC2=O)c([N+](=O)[O-])cc1OC (stereo not given) | > 46.7 |
| O=C(/C=C/c1ccccc1)Oc1cccc2cccnc12 | 20.2 (≈ 73.4 µM) |
| Cc1cc(C)n2nc(SCC(=O)N3CCC(C(=O)O)CC3)nc2n1 | > 52.4 |
| COc1ccc(-c2nc(C#N)c(N3CCC(C)CC3)o2)cc1 | 0.3 (≈ 1.01 µM) |
| COc1ccc(OC)c(NC(=O)c2ccno2)c1 | > 37.2 |
| CC1CCCC1/C(=N/O)c1ccccc1 (stereo not given) | 16.9 (≈ 83.1 µM) |
| CC(C)(C)C(=O)N/C(N)=N/c1nc2ccccc2o1 | 8.1 (≈ 31.1 µM) |
| O=C(O)c1cc(S(=O)(=O)NCCN2CCNC2=O)ccc1O | > 49.4 |
| Cl.NCCSC1CC(=O)N(c2ccc(F)cc2)C1=O (stereo not given) | 29.5 |
| Cc1ccnc(NC(=O)CNC(=O)c2ccc(C)s2)c1 | > 43.4 |
| Cc1cccc(N2CCN(C(=O)c3ccnn3C)CC2)c1C | > 44.8 |
| O=C(NCc1ccccc1)c1ccc[nH+]c1.[Cl-] | > 37.3 |
| CC(C)NC(=O)CCCn1cc([N+](=O)[O-])cn1 | > 36 |
| FC(F)(F)c1cccc(CNC2CCN(Cc3ccccc3)CC2)c1 | 38.6 (≈ 111 µM) |
| CCOc1ccc(Br)cc1S(=O)(=O)Nc1cccc(S(=O)(=O)Nc2ccccc2C(=O)O)c1 | > 83.3 |
| O=S(=O)(Nc1cccc(S(=O)(=O)N2CCCCC2)c1)c1ccccc1F | > 59.8 |
| O=[N+]([O-])c1ccc(N2CCOCC2)cc1N1CCCCC1 | > 43.7 |

| SMILES | solubility kinetic [µg/mL] |
| --- | --- |
| O=C(c1cccc2nc3ccccc3nc12)N1CCOCC1 | 40.9 (≈ 139 µM) |
| CCCCCCNc1nc(Cl)nc(NC(C)(C)CO)n1 | 3.1 (≈ 10.3 µM) |
| CC(=O)c1ccc(NC(=O)c2cc(C)no2)cc1 | 13.3 (≈ 54.5 µM) |
| COc1cc2c(cc1OC)CN(Cc1ccc(F)cc1)CC2 | 35.7 (≈ 118 µM) |
| CC(C)[C@H](NS(=O)(=O)c1ccccc1)C(=O)Nc1nccs1 | 7.2 (≈ 21.2 µM) |
| O=CN(c1ccccc1)c1ccc2ccccc2c1 | 14.2 (≈ 57.4 µM) |
| Cc1csc2nc(O)c(C(=O)NCCCc3ccccc3)c(=O)n12 | 4.2 (≈ 12.2 µM) |
| Cc1[nH]c(=S)c(C#N)c(C)c1Cc1ccc(Cl)cc1Cl | 2.2 (≈ 6.81 µM) |
| COC(=O)c1cccc(NC(=O)CN2CCc3ccccc3C2)c1 | 39.6 (≈ 122 µM) |
| O=C(C1CCC1)N1CCN(c2ccccc2)CC1 | 35.6 (≈ 146 µM) |
| C=C(C)C(=O)Oc1ccc(N2C(=O)[C@@H]3C4C=CC(C4)[C@@H]3C2=O)cc1 | 10.1 (≈ 31.2 µM) |
| CCc1ccc(NC(=O)C(=O)NCC2CCCO2)cc1 (stereo not given) | 18.5 (≈ 66.9 µM) |
| CN(C)/C=N/c1ncc(C(=O)c2ccc(Cl)cc2Cl)s1 | 41.6 (≈ 127 µM) |
| CCN(CC)c1ccc(C(=O)c2cnc(/N=C/N(C)C)s2)cc1 | 48.6 (≈ 147 µM) |
| COC(=O)c1sccc1NC(=O)c1ccccc1F | 1 (≈ 3.58 µM) |
| Cc1ccc(CN2C(=O)C(=O)N(CC(N)=O)C2=O)cc1 | > 41.3 |
| Cc1cc2nc(/C(C#N)=C/c3ccncc3)[nH]c2cc1C | 1.7 (≈ 6.2 µM) |
| Cc1ccnc(SCC(=O)c2cc3ccccc3o2)n1 | 1.3 (≈ 4.57 µM) |
| CCCn1nc(C(=O)N2CCN(c3ccccn3)CC2)c2ccccc2c1=O | > 56.6 |

Reference: PubChem BioAssay AID1996
